From patent US7825146B2, “Sulfonamide derivative having isoxazole ring” (Shionogi & Co., Ltd., priority 2003, dated 2010)

Assays:
MMP-2 = molecular target: T1, MMP-2 (Homo sapiens, UniProt P08253); assay: Assay for inhibitory activities on MMPs (fluorogenic MOCAc peptide substrate): MMP-2; type: biochemical; settings: MMP-2 purchased from Calbiochem-Novabiochem
T1 construct: purchased Calbiochem-Novabiochem International, Inc
T1 sequence (P08253 110-660): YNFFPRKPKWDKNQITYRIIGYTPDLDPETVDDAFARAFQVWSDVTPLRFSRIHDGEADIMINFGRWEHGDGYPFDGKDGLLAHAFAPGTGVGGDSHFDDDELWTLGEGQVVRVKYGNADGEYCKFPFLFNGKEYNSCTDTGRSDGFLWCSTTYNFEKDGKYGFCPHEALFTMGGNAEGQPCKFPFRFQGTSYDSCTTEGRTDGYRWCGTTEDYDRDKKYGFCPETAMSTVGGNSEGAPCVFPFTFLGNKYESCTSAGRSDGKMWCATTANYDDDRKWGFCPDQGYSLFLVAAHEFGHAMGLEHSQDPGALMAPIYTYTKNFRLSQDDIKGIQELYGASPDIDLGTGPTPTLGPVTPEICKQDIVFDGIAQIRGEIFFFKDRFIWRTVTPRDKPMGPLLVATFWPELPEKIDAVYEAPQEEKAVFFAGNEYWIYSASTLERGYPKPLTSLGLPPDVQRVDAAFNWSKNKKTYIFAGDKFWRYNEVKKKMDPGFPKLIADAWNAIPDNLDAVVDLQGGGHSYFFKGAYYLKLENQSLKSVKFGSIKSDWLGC
Description: MMP-2 was purchased from Calbiochem-Novabiochem International, Inc.
(§1) The enzymatic activity on MMPs was analyzed by the method described in “C. Graham Knight, Frances Willenbrock and Gillian Murphy: A novel coumarin-labelled peptide for sensitive continuous assays of the matrix metalloproteinases: FEBS LETT., 296, (1992), 263-266”. The substrate: MOCAc-Pro-Leu-Gly-Leu-A2Pr(DNP)-Ala-Arg-NH2 was purchased from Peptide Institute, Inc., Osaka, Japan. The measurement of the inhibitory activities (IC50) was carried out by the following four methods; • (A) Reaction with substrate, enzyme (MMPs) and inhibitor • (B) Reaction with substrate and inhibitor, without enzyme • (C) Reaction with substrate and enzyme (MMPs), without inhibitor • (D) Reaction with substrate only IC50 values were calculated by using the following formula and each fluorescence values of above four methods (A to D).
(§2) The value of inhibitory activity against MMP-2, MMP-8, MMP-9, MMP-12, and MMP-13 measured by above mentioned methods are shown in Table 36, 37, 38, 39, and 40 respectively.

MMP-8 = molecular target: T2, MMP-8 (Homo sapiens, UniProt P22894); assay: Assay for inhibitory activities on MMPs (fluorogenic MOCAc peptide substrate): MMP-8; type: biochemical; settings: catalytic domain 99Phe-262Gly
T2 construct: In regard to MMP-8, catalytic domain (^99Phe˜^262Gly) was amplified with PCR; His-tag; enterokinase digestion-site; made in house
From the text: In regard to MMP-8, catalytic domain (^99Phe˜^262Gly) was amplified with PCR using commercial available Human Bone Marrow cDNA. This was cloned in Escherichia. coli expression vector pTrc99AHE inserted with His-tag sequence and enterokinase digestion-site, induced and expressed by IPTG (Isdpropyl-β-D-thiogalactopyranoside) and expressed in a insoluble fraction (Thau F. Ho, M. Walid Qoronfleh, Robert C. Wahl, Trica A. Pulvino, Karen J. Vavra, Joe Falvo, Tracey M. Banks, Patricia G. Brake and Richard B. Ciccarelli: Gene expression, purification and characterization of recombinant human neutrophil collagenase. Gene 146, (1994) 297-301, Prepared by the a improved method of this material). Isolation of MMP-8 from an insoluble fraction was carried out by dissolving in modifier (6M urea) by a usual method and purification with metal chelate chromatography. And then removing modifier (6M urea) with dialysis and refolding of the enzyme spontaneously gave activated MMP-8.
as §1, §2

MMP-9 = molecular target: T3, MMP-9 (Homo sapiens, UniProt P14780); assay: Assay for inhibitory activities on MMPs (fluorogenic MOCAc peptide substrate): MMP-9; type: biochemical; settings: from HT1080 cells, activated by TPCK-Trypsin
T3 construct: made in house; host or cells: endogenous secretion from human fibrosarcoma HT1080 cells (TPA-stimulated), purified from conditioned medium
From the text: MMP-9 was isolated and purified by procedures described in as follows: Yasunori Okada, Yukio Gonoji, Katsumi Naka, Katsuro Tomita, Isao Nakanishi, Kazushi Iwata, Kyoko Yamashita, and Taro Hayakawa: Matrix metalloproteinase 9 (92-kDa gelatinase/type IV collagenase) from HT1080 human fibrosarcoma cells. Purification and activation of the precursor and enzymic properties J. Biol. Chem., 1992, 267 21712-21719, in combination with others: 1) Yasunori Okada, Tatsuhisa Morodomi, Jan J, Enghild, ko Suzuki, Atsushi Yasui, Isao Nakanishi, Guy Salvesen and Hideaki Nagase: Matrix metalloproteinase 2 from human rheumatoid synovial fibroblasts. Purification and activation of the precursor and enzymic properties. Eur. J. Biochem. 1990, 194 721-730; 2) Robin V Ward, Rosalind M Hembry; John J Reynolds and Gillian Murphy: The purification of tissue inhibitor of metalloproteinase-2 from its 72 kDa progelatinase complex. Biochem. J. 1991 278 179-187. In detail, human fibrosarcoma ATCC HT1080 cell line was cultured to confluent in Dulbecco's Modified Medium (DMEM) containing 10% fetal-calf serum at 37° C. for 48 hours. Subsequently, the medium of confluent culture was changed to serum-free DMEM medium. To obtain MMP-9, Phorbol-12-myristate-13-acetate (TPA) must be added to this serum-free DMEM medium at a concentration of 50 ng/ml. The TPA treated medium was centrifuged at 3000 rpm for 15 min and the supernatant was concentrated to 450 ml by a Toyo-Roshi UP-20 apparatus with an ultrafiltration membrane. Then, proMMP-9 in this concentrated solution was purified by using columns of Gelatin-Sepharose and Concanavalin A-Sepharose. The pool containing proMMP-9 was dialyzed, concentrated (Toyo-Roshi UP-20) and applied to columns of Sephacryl S-200 and Green A matrix for the separation from TIMPs. The obtained proMMP-9 fraction was activated by TPCK-Trypsin (Final conc. 3 μg/50 μl React Mix.).
as §1, §2

MMP-13 = molecular target: T4, MMP-13 (Homo sapiens, UniProt P45452); assay: Assay for inhibitory activities on MMPs (fluorogenic MOCAc peptide substrate): MMP-13; type: biochemical; settings: Table 40
T4 construct: catalytic domain (^104Tyr˜^267Gly) was amplified with RT-PCR; His-tag; enterokinase digestion-site; made in house
Description: (§3) In regard to MMP-13, mRNA was prepared from carcinoma cell SW1353 derived from human cartilage stimulate by IL-1, TNF and catalytic domain (^104Tyr˜^267Gly) was amplified with RT-PCR. This was cloned in Escherichia. coli expression vector pTrc99AHE inserted with His-tag sequence and enterokinase digestion-site, induced and expressed by IPTG (Isopropyl-β-D-thiogalactopyranoside) and expressed in a insoluble fraction. Isolation of MMP-13 from an insoluble fraction was carried out by dissolving in modifier (6M urea) by a usual method and purification with metal chelate chromatography (Ni Chelateing Sepharose). And then removing modifier (6M urea) with dialyze and refolding of the enzyme spontaneously gave activated MMP-13.
as §1, §2

MMP-12 = molecular target: T5, MMP-12 (Homo sapiens, UniProt P39900); assay: Assay for inhibitory activities on MMPs (fluorogenic MOCAc peptide substrate): MMP-12; type: biochemical; settings: catalytic domain 100Phe-263Gly
T5 construct: In regard to MMP-12, catalytic domain(^100Phe˜^263Gly) was amplified with RT-PCR; His-tag; enterokinase digestion-site; made in house
Description: as §3, with “MMP-12,” for “MMP-13, mRNA was prepared from carcinoma cell SW1353 derived from human cartilage stimulate by IL-1, TNF and”, “domain(^100Phe˜^263Gly)” for “domain (^104Tyr˜^267Gly)”, “RT-PCR from Human Placenta Total RNA.” for “RT-PCR.”, “MMP-12” for “MMP-13”, “dialysis” for “dialyze”, “MMP-12.” for “MMP-13.”
as §1, §2

T5 sequence (P39900 100-263): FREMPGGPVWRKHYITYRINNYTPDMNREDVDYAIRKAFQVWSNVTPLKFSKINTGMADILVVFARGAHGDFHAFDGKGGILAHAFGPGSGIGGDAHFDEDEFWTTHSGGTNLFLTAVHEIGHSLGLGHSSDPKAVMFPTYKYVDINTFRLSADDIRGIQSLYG
T3 sequence (P14780 107-707 limits assumed): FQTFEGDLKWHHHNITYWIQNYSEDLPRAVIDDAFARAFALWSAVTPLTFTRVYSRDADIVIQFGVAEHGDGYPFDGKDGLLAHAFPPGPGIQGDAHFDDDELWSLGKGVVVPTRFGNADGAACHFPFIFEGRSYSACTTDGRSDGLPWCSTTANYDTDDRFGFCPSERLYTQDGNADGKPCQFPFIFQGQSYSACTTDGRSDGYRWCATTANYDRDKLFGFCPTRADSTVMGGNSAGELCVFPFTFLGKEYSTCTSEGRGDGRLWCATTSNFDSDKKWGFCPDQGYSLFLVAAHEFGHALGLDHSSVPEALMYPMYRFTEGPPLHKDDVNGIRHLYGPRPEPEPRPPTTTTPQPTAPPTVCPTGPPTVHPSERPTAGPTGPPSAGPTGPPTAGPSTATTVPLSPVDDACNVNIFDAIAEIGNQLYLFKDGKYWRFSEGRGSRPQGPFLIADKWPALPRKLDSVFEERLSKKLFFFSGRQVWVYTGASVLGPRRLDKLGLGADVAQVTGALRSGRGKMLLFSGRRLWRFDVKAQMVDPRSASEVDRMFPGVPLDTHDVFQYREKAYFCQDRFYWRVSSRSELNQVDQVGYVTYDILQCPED
T2 sequence (P22894 99-262): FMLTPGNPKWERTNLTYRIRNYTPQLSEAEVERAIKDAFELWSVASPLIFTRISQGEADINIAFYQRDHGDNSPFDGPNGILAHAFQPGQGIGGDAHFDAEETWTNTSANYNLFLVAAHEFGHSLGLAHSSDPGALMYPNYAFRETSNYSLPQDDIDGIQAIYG

Compound | IC50 (MMP-2) | IC50 (MMP-8) | IC50 (MMP-9) | IC50 (MMP-13) | IC50 (MMP-12) | melting point
CSc1ccc(-c2cc(-c3ccc(S(=O)(=O)N[C@@H](C(=O)O)C(C)C)cc3)no2)cc1 [Example C-10] | 0.0619 nM | 0.0039 µM | – | 0.000282 µM | 0.000201 µM | –
CCCc1ccc(-c2cc(-c3ccc(S(=O)(=O)N[C@@H](C(=O)O)C(C)C)cc3)no2)cc1 [Example C-14] | 0.0533 nM | – | – | 0.00015 µM | 0.000216 µM | –
Cc1ccc(-c2cc(-c3ccc(S(=O)(=O)N[C@@H](C(=O)O)C(C)C)cc3)on2)s1 [Example A-33] | 0.0971 nM | 0.00291 µM | – | – | – | –
CC(C)[C@@H](NS(=O)(=O)c1ccc(-c2cc(-c3ccc(OC(F)(F)F)cc3)no2)cc1)C(=O)O [Example A-18] | 0.0674 nM | – | 0.00052 µM | 0.000263 µM | 0.000376 µM | –
Cc1ccc(-c2cc(-c3ccc(S(=O)(=O)N[C@H](C)C(=O)O)cc3)no2)cc1 [Example C-1] | – | – | – | – | 0.000707 µM | 218 to 221 °C
CC(C)c1ccc(-c2cc(-c3ccc(S(=O)(=O)N[C@@H](C(=O)O)C(C)C)cc3)on2)cc1 [Example A-16] | 0.0767 nM | – | – | 0.000328 µM | 0.000687 µM | –
CSc1ccc(-c2cc(-c3ccc(S(=O)(=O)N[C@H](C)C(=O)O)cc3)no2)cc1 [Example C-4] | 0.0934 nM | – | – | 0.000404 µM | 0.000377 µM | –
CC(C)[C@@H](NS(=O)(=O)c1ccc(-c2cc(-c3ccc(SC(F)(F)F)cc3)no2)cc1)C(=O)O [Example A-32] | – | – | 0.000609 µM | 0.000193 µM | 0.000463 µM | –
CCc1ccc(-c2cc(-c3ccc(S(=O)(=O)N[C@@H](C(=O)O)C(C)C)cc3)no2)cc1 [Example C-12] | 0.0832 nM | – | 0.000532 µM | 0.000266 µM | 0.000316 µM | –

Further lines, results first:

IC50 (MMP-2) | IC50 (MMP-8) | IC50 (MMP-9) | IC50 (MMP-13) | IC50 (MMP-12) | melting point | Compound
0.0926 nM | 0.00178 µM | 0.000585 µM | 0.000528 µM | – | – | Cc1ccc(-c2cc(-c3ccc(S(=O)(=O)N[C@H](Cc4ccccc4)C(=O)O)cc3)no2)s1 [Example C-124]
0.0449 nM | 0.000567 µM | 0.00034 µM | 0.000701 µM | 0.000368 µM | – | Cc1ccc(-c2cc(-c3ccc(S(=O)(=O)N[C@@H](C(=O)O)C(C)C)cc3)no2)s1 [Example C-29]
– | – | 0.000706 µM | – | 0.000275 µM | – | CC(C)[C@@H](NS(=O)(=O)c1ccc(-c2cc(-c3ccc(Br)cc3)on2)cc1)C(=O)O [Example C-22]
– | – | 0.00032 µM | 0.000223 µM | 0.000196 µM | – | CC(C)[C@@H](NS(=O)(=O)c1ccc(-c2cc(-c3ccc(OC(F)(F)F)cc3)on2)cc1)C(=O)O [Example C-25]
– | – | 0.00092 µM | – | 0.000366 µM | – | CC(C)[C@@H](NS(=O)(=O)c1ccc(-c2cc(-c3ccc(Cl)cc3)on2)cc1)C(=O)O [Example C-20]
– | 0.000781 µM | 0.000467 µM | – | 0.000535 µM | – | CC(C)[C@@H](NS(=O)(=O)c1ccc(-c2cc(-c3ccc(Cl)s3)on2)cc1)C(=O)O [Example C-33]
0.049 nM | – | – | 0.000136 µM | 0.00015 µM | – | CC(C)c1ccc(-c2cc(-c3ccc(S(=O)(=O)N[C@@H](C(=O)O)C(C)C)cc3)no2)cc1 [Example C-15]
– | – | 0.000741 µM | – | 0.000245 µM | – | CC(C)[C@@H](NS(=O)(=O)c1ccc(-c2cc(-c3ccc(Cl)c(F)c3)on2)cc1)C(=O)O [Example C-36]
